We go through 3 compounds from patent publication US8841087B2 (priority 2008, dated 2014).

Molecules are shown by their SMILES.

This assay has as its system clinical strains of Mycobacterium tuberculosis. Put plainly: Reference phenotypic test of antibiotic sensitivity in solid medium. The following applies: six clinical strains. The assay is classed as cell-based.

With `CC[C@@H](CO)NCCN[C@@H](CC)CO` [ethambutol], the “sensitivity at critical concentration” value (ethambutol, 5 μg/ml) was “sensitive”. `NNC(=O)c1ccncc1` [isoniazid]: where the note is “isoniazid, 0.2 μg/ml”, the “sensitivity at critical concentration” value was “sensitive”.

For `[H]/N=C(/N)N[C@H]1[C@H](O)[C@@H](O)[C@H](O[C@@H]2O[C@@H](C)[C@](O)(C=O)[C@H]2O[C@@H]2O[C@@H](CO)[C@H](O)[C@@H](O)[C@@H]2NC)[C@@H](N/C(N)=N\[H])[C@@H]1O` [streptomycin], the “sensitivity at critical concentration” value (streptomycin, 5 μg/ml) was “sensitive”.
